EP2891491A1, “Use of (r)-phenylpiracetam for the treatment of sleep disorders” (Merz Pharma GmbH & Co. KGaA, priority 2014, dated 2015)
Where “and” joins values, the source holds several entries; their conditions need not be identical. Identical values can stand only once.

Biological target: T1, neuronal dopamine re-uptake transporter (Homo sapiens, UniProt Q01959)
T1 construct: expressed in transfected cells
Assay: functional monoamine transporter assay: [3H]-dopamine uptake in CHO-K1 cells expressing dopamine transporters
Assay type: cell-based
Settings: functional assays, read-out: affinity for the neuronal dopamine re-uptake transporter
Method: Using functional monoamine transporter assays, we determined the potential drug targets for (R)-phenylpiracetam.
Recombinant Chinese hamster ovary (CHO) cells CHO-K1 (ATCC® CCL-61 ™) cells stably expressing dopamine transporters are plated. The cells (2 x 10^5/ml) are pre-incubated with test compound and/or vehicle in modified Tris-HEPES buffer pH 7.1 at 25°C for 20 min and 50 nM [^3H]-dopamine is then added for an additional 15 min incubation period. Non-specific signal is determined in the presence of 10 µM nomifensine. Cells are then solubilized with 1% SDS lysis buffer. Reduction of [^3H]-dopamine uptake by 50 percent or more (≥50%) relative to vehicle controls indicates significant inhibitory activity. Compounds are screened at 10, 1, 0.1, 0.01 and 0.001 µM. These same concentrations are concurrently applied to a separate group of untreated cells and evaluated for possible compound-induced cytotoxicity only if significant inhibition of uptake is observed.

T1 sequence (Q01959 whole entry): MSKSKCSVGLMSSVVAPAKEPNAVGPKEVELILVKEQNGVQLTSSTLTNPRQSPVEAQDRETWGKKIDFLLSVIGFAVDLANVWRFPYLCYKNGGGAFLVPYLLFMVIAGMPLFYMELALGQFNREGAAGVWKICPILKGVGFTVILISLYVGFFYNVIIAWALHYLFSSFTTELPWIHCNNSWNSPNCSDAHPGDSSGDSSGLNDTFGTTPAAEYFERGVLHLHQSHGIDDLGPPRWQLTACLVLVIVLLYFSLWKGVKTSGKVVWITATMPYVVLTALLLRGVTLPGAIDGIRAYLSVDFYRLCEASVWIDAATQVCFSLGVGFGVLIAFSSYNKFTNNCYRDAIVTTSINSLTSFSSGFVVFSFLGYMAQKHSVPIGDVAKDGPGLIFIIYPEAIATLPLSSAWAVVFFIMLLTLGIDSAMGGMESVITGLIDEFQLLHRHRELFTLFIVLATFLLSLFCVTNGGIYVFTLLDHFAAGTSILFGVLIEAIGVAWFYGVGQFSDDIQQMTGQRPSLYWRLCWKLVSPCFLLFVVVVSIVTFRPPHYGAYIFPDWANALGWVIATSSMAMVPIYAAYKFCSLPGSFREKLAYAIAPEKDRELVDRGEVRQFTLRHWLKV

Question: For `NC(=O)CN1C[C@@H](c2ccccc2)CC1=O` [(R)-phenylpiracetam], which IC50 is on record?
Answer: ~13 µM and 13 µM
